Data published in PMC6026847, “Synthesis and Evaluation of the First Fluorescent Antagonists of the Human P2Y2 Receptor Based on AR-C118925” (Journal of Medicinal Chemistry, 2018).
Read-outs that look alike come from different tables or passages of the source.

Assays:
NLuc-P2Y2R [1] = biological target: T1, NLuc-P2Y2R (Homo sapiens, UniProt P41231); experiment: NanoBRET competition binding in NLuc-P2Y2 1321N1 cells; details: Table 7, competition binding with fluorescent ligand 98, mean ± SEM
T1 construct: expressed in transfected cells
T1 sequence (P41231 2-377 limits assumed): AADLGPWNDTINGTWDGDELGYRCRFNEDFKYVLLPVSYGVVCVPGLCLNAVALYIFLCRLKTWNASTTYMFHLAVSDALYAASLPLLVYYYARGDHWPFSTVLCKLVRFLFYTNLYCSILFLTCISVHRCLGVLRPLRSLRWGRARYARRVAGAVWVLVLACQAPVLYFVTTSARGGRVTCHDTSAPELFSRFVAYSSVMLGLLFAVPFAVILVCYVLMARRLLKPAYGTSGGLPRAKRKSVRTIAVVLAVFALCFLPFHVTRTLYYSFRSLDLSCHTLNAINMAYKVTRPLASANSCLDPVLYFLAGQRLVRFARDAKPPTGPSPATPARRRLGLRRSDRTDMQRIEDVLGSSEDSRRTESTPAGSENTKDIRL

hP2Y2R = biological target: T2, hP2Y2R (Homo sapiens, UniProt P41231); experiment: Calcium-mobilization assay in P2Y2-1321N1 cells (antagonism of UTPγS); format: cell-based; details: for Kb: Gaddum equation
T2 construct: The 1321N1 cells expressing wild-type P2Y2R (P2Y2R-1321N1) were gifted by Dr. Elizabeth Rosethorne; expressed in transfected cells; host or cells: 1321N1 astrocytoma cells (P2Y2R-1321N1), gifted
T2 sequence (P41231 whole entry): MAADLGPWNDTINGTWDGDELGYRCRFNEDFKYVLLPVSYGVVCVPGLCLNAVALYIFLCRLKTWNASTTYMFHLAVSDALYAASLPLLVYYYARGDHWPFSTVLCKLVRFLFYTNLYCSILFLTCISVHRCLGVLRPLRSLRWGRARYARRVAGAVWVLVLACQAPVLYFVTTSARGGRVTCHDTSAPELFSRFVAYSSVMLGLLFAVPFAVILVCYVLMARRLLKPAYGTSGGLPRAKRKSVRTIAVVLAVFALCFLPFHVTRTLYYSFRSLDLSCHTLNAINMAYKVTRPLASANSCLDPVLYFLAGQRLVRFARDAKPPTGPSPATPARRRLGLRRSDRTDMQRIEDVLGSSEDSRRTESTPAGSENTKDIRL

NLuc-P2Y2R [2] = biological target: T1, NLuc-P2Y2R; experiment: Calcium signal of NLuc-tagged P2Y2 receptors in 1321N1 cells; format: cell-based; details: n = 3, read-out: UTPγS EC50 (calcium signal)
Experimental: To create the NLuc-P2Y2R constructs, human P2Y2R DNA (obtained from the Missouri S&T cDNA Resource Center) was amplified by PCR to remove the methionine start signal and cloned into pCR2.1 (linearized vector, Invitrogen). P2Y2R was then subcloned in-frame with the membrane-signal sequence of the 5HT3A receptor and the full-length sequence of nanoluciferase.
P2Y2-1321N1 cells seeded into black-sided 96-well view plates were incubated at 37 °C without CO2 for 45 min in a total volume of 100 μL of a HEPES-buffered saline solution (HBSS; 10 mM HEPES, 10 mM glucose, 145 mM NaCl, 5 mM KCl, 1 mM MgSO4, 2 mM sodium pyruvate, and 1.3 mM CaCl2) containing 2.5 mM probenecid, 2.3 μM Fluo 4AM, 0.023% pluronic acid, 0.5 mM Brilliant Black, 1 U/mL apyrase, and the ligand under investigation or the vehicle. The plates were then loaded onto a plate reader (FLEXstation, Molecular Devices), and the fluorescence was measured (excitation: 485 nm, emission: 525 nm) every 1.52 s for up to 200 s after the addition of UTPγS at 15 s. For the investigation of the BODIPYFL-labeled ligands, Fluo 4AM was replaced with 2.0 μM X-Rhod-1 AM (excitation: 584 nm, emission: 612 nm).

[3] = tested on: panel of 37 other receptors; design: method as in PMID 15231488; details: 10 μM; cited from earlier work
[4] = tested on: human bronchial epithelial cells; design: method as in PMID 15231488; details: ex vivo; cited from earlier work
hP2Y2 = tested on: hP2Y2; design: method as in PMID 28958619; details: cited from earlier work
[5] = Table 7, shift of agonist dose–response curve by a single antagonist concentration, mean ± SEM, read-out: pKb Ca2+ mobilization (converted)

## O=c1ccn([C@@H]2O[C@H](COP(=O)(O)OP(=O)(O)OP(O)(O)=S)[C@@H](O)[C@H]2O)c(=O)[nH]1 [UTPγS, uridine-5′-(γ-thio)-triphosphate, reference compound]
NLuc-P2Y2R [1]
  pKi NanoBRET (98): 5.46 ± 0.04 (6)
hP2Y2R; agonist, calcium mobilization, n = 25
  EC50: 7.9 nM
NLuc-P2Y2R [2]
  EC50: 91 ± 12 nM

## Cc1ccc2c(c1)C=Cc1cc(C)ccc1C2c1cn(Cc2cc(C(=O)O)cc(C(=O)O)c2)c(=O)[nH]c1=S [Example 60, 5-((5-(2,8-Dimethyl-5H-dibenzo[a,d][7]annulen-5-yl)-2-oxo-4-thioxo-3,4-dihydropyrimidin-1(2H)-yl)methyl)isophthalic Acid]
NLuc-P2Y2R [1]; read-out: pKi NanoBRET (98) (converted)
  Ki: 145 nM
hP2Y2R; [5]
  Kb: 295 nM
hP2Y2R; quoted in text for nonfluorescent antagonists, mean ± SEM, read-out: hP2Y2R affinity pKd (converted)
  Kd: 295 nM

## Cc1ccc2c(c1)C=Cc1cc(C)ccc1C2c1cn(Cc2ccc(C(=O)Nc3nnn[nH]3)o2)c(=O)[nH]c1=S [Example 1]
[3]
  activity against a panel of 37 other receptors: inactive
[4]
  antagonism of ATPγS-induced mucin secretion: concentration-dependently antagonize

## Cc1ccc2c(c1)C=Cc1cc(C)ccc1C2c1cn(Cc2nc(C(=O)O)cs2)c(=O)[nH]c1=S [Example 2, 2-((5-(2,8-dimethyl-5H-dibenzo[a,d][7]annulen-5-yl)-2-oxo-4-thioxo-3,4-dihydropyrimidin-1(2H)-yl)methyl)thiazole-4-carboxylic acid]
hP2Y2R; Table 1, shift of UTPγS concentration–response curve by a single antagonist concentration, mean ± SEM, read-out: hP2Y2 pKb (converted)
  Kb: 372 nM
hP2Y2
  pA2 (literature/reported value): c The literature value is pA2 = 5.7.[8]

## O=c1[nH]c(=S)c(C2c3ccccc3CCc3ccccc32)cn1[C@@H]1O[C@H](COP(=O)([O-])OP(=O)([O-])C(Cl)(Cl)P(=O)([O-])[O-])[C@@H](O)[C@H]1O.[Na+].[Na+].[Na+].[Na+] [Example 99, reference compound]
hP2Y2R; [5]
  Kb: 257 nM
hP2Y2
  pA2 (literature/reported value): d Reported pA2 = 8.0.[8]
